Data on 22 compounds can be found in patent US20230348424A1, “HETEROCYCLIC COMPOUNDS AND METHODS OF USE” (Schrödinger, Inc., priority 2022, published 2023).

This assay deals with SOS1:KRAS (G12C) interaction (Homo sapiens (Human), UniProt Q07889). The assay is described as follows: SOS1 KRas(G12C) FRET Assay. Type of assay: binding. Conditions: 0.5 nM His10-SOS1 (res. 564-1049), 2.5 nM GST-KRAS G12C (res. 1-169), 2 hrs at RT. In a few lines: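 GST-KRAS G12C (res. 1-169) at 2.5 nM and His10-SOS1 (res. 564-1049) at 0.5 nM, final, in PBS with 0.1% BSA, 5 mM MgCl2, 100 mM KF, 5 mM DTT and 0.5% DMSO. After 2 h at RT, FRET read at 665/615 nm and normalized to DMSO and no-SOS1 controls. IC50 by non-linear regression.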

For orientation: pIC50 means −log10 of the IC50, conventionally taken in molar units. Higher therefore signals a small IC50.

The structures appear in SMILES notation. pIC50: −log10 of the molar value.

Sequence of SOS1:KRAS (G12C) interaction (Q07889 564-1049, stated change not applied): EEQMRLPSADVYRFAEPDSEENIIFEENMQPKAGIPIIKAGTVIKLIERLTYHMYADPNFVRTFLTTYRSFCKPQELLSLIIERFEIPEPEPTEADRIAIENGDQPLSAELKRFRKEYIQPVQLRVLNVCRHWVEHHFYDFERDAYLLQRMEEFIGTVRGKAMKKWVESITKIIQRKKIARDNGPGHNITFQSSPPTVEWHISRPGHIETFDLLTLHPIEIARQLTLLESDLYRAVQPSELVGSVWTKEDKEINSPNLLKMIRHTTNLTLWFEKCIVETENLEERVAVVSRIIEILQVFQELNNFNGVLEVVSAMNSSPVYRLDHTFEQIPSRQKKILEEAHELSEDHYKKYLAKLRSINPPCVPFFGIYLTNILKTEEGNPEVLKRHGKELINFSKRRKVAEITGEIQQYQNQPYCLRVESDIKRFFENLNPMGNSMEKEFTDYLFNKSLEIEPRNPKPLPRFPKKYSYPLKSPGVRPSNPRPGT

Compound `C[C@@H](NC(=O)c1cn(C2(C)CN(C(=O)C3CC3)C2)c(=O)cc1NC1CCN(C)CC1)c1cccc(C(F)F)c1F` [Example 78, (R)-1-(1-(cyclopropanecarbonyl)-3-methylazetidin-3-yl)-N-(1-(3-(difluoromethyl)-2-fluorophenyl)ethyl)-4-((1-methylpiperidin-4-yl)amino)-6-oxo-1,6-dihydropyridine-3-carboxamide] showed a negative logarithm of the IC50 (pIC50) of 9.05.

On to `C[C@@H](NC(=O)c1cn(C23CC(C2)C3)c(=O)cc1N[C@H]1[C@@H]2CNC[C@@H]21)c1cccc(C(F)F)c1F` [Example 89, 4-(((1R,5S,6s)-3-azabicyclo[3.1.0]hexan-6-yl)amino)-1-(bicyclo[1. 1.1]pentan-1-yl)-N-((R)-1-(3-(difluoromethyl)-2-fluorophenyl)ethyl)-6-oxo-1,6-dihydropyridine-3-carboxamide], for which the pIC50 was 7.64.

Compound `C[C@@H](NC(=O)c1cn(C2CCC2)c(=O)cc1N[C@H]1[C@@H]2CN(C)C[C@@H]21)c1cccc(C(F)F)c1F` [Example 150, 1-cyclobutyl-N-((R)-1-(3-(difluoromethyl)-2-fluorophenyl)ethyl)-4-(((1R,5S,6s)-3-methyl-3-azabicyclo[3.1.0]hexan-6-yl)amino)-6-oxo-1,6-dihydropyridine-3-carboxamide] had a negative-log IC50 (pIC50) of 7.91.

`Cc1c([C@@H](C)NC(=O)c2cn(C3CCOCC3)c(=O)cc2SC2CCNCC2)cccc1C(F)(F)F` [Example 157, (R)-N-(1-(2-methyl-3-(trifluoromethyl)phenyl)ethyl)-6-oxo-4-(piperidin-4-ylthio)-1-(tetrahydro-2H-pyran-4-yl)-1,6-dihydropyridine-3-carboxamide] gave a pIC50 of 6.66.

On to `CN1C[C@@H]2[C@H](C1)[C@H]2Nc1cc(=O)n(C2(C(F)F)CC2)cc1C(=O)N[C@@H](c1cccc(C(F)F)c1F)C(F)F` [Example 158, N-((S)-1-(3-(difluoromethyl)-2-fluorophenyl)-2,2-difluoroethyl)-1-(1-(difluoromethyl)cyclopropyl)-4-(((1R,5S,6s)-3-methyl-3-azabicyclo[3.1.0]hexan-6-yl)amino)-6-oxo-1,6-dihydropyridine-3-carboxamide], for which the pIC50 was 7.09.

`CN1C[C@@H]2[C@H](C1)[C@H]2Nc1cc(=O)n(C2(C(F)F)CC2)cc1C(=O)N[C@H](c1cccc(C(F)F)c1F)C(F)F` [Example 159, N-((R)-1-(3-(difluoromethyl)-2-fluorophenyl)-2,2-difluoroethyl)-1-(1-(difluoromethyl)cyclopropyl)-4-(((1R,5S,6s)-3-methyl-3-azabicyclo[3.1.0]hexan-6-yl)amino)-6-oxo-1,6-dihydropyridine-3-carboxamide] gave a pIC50 of 5.97.

The compound `C[C@@H](NC(=O)c1cn(C23CC(C2)C3)c(=O)cc1N[C@H]1[C@@H]2CN(C)C[C@@H]21)c1cccc(C(F)(F)F)c1` [Example 160, 1-(bicyclo[1.1.1]pentan-1-yl)-4-(((1R,5S,6s)-3-methyl-3-azabicyclo[3.1.0]hexan-6-yl)amino)-6-oxo-N-((R)-1-(3-(trifluoromethyl)phenyl)ethyl)-1,6-dihydropyridine-3-carboxamide] had a negative logarithm of the IC50 (pIC50) of 7.67.

The compound `C[C@@H](NC(=O)c1cn(C23CC(C2)C3)c(=O)cc1N[C@H]1[C@@H]2CN(C)C[C@@H]21)c1cccc(S(F)(F)(F)(F)F)c1` [Example 161, 1-(bicyclo[1.1.1]pentan-1-yl)-4-(((1R,5S,6s)-3-methyl-3-azabicyclo[3 .1.0]hexan-6-yl)amino)-6-oxo-N-((R)-1-(3-(pentafluoro-16-sulfaneyl)phenyl)ethyl)-1,6-dihydropyridine-3-carboxamide] showed a pIC50 of 7.62.

`C[C@@H](NC(=O)c1cn(C23CC(C2)C3)c(=O)cc1N[C@H]1[C@@H]2CN(C)C[C@@H]21)c1cccc(S(F)(F)(F)(F)F)c1F` [Example 162, 1-(bicyclo[1.1.1]pentan-1-yl)-N-((R)-1-(2-fluoro-3-(pentafluoro-16-sulfaneyl)phenyl)ethyl)-4-(((1R,5S,6s)-3-methyl-3-azabicyclo[3.1.0]hexan-6-yl)amino)-6-oxo-1,6-dihydropyridine-3-carboxamide] had a pIC50 of 7.56.

As for `C[C@@H](NC(=O)c1cn(C2CCC2)c(=O)cc1N[C@H]1[C@@H]2CN(C)C[C@@H]21)c1cccc(S(F)(F)(F)(F)F)c1` [Example 163, 1-cyclobutyl-4-(((1R,5S,6s)-3-methyl-3-azabicyclo[3.1.0]hexan-6-yl)amino)-6-oxo-N-((R)-1-(3-(pentafluoro-16-sulfaneyl)phenyl)ethyl)-1,6-dihydropyridine-3-carboxamide], the pIC50 was 7.53.

Consider `C[C@@H](NC(=O)c1cn(C2CCC2)c(=O)cc1NC1CCN(C)CC1)c1cccc(S(F)(F)(F)(F)F)c1` [Example 164, (R)-1-cyclobutyl-4-((1-methylpiperidin-4-yl)amino)-6-oxo-N-(1-(3-(pentafluoro-16-sulfaneyl)phenyl)ethyl)-1,6-dihydropyridine-3-carboxamide], for which the pIC50 is 7.87.

In the case of `CC(NC(=O)c1cn(C2(C(F)F)CC2)c(=O)cc1NC1CCN(C)CC1)c1ccc(C2CC2)c(C(F)(F)F)c1` (stereo not shown) [Example 169, N-(1-(4-cyclopropyl-3-(trifluoromethyl)phenyl)ethyl)-1-(1-(difluoromethyl)cyclopropyl)-4-((1-methylpiperidin-4-yl)amino)-6-oxo-1,6-dihydropyridine-3-carboxamide], the pIC50 is 5.23.

The compound `CC(NC(=O)c1cn(C2(C(F)F)CC2)c(=O)cc1NC1CCN(C)CC1)c1cccc(C(F)(F)F)c1Cl` (stereo not shown) [Example 170, N-(1-(2-chloro-3-(trifluoromethyl)phenyl)ethyl)-1-(1-(difluoromethyl)cyclopropyl)-4-((1-methylpiperidin-4-yl)amino)-6-oxo-1,6-dihydropyridine-3-carboxamide] showed a negative logarithm of the IC50 (pIC50) of 7.39.

Compound `COc1ccc(C(C)NC(=O)c2cn(C3(C(F)F)CC3)c(=O)cc2NC2CCN(C)CC2)cc1C(F)(F)F` (stereo not shown) [Example 173, 1-(1-(difluoromethyl)cyclopropyl)-N-(1-(4-methoxy-3-(trifluoromethyl)phenyl)ethyl)-4-((1-methylpiperidin-4-yl)amino)-6-oxo-1,6-dihydropyridine-3-carboxamide] had a pIC50 of 5.93.

On to `C[C@@H](NC(=O)c1cn(C2(C(F)F)CC2)c(=O)cc1N[C@H]1[C@@H]2CN(C)C[C@@H]21)c1cccc(C(F)(F)c2ccncc2)c1F` [Example 174, N-((R)-1-(3-(difluoro(pyridin-4-yl)methyl)-2-fluorophenyl)ethyl)-1-(1-(difluoromethyl)cyclopropyl)-4-(((1R,5S,6s)-3-methyl-3-azabicyclo[3.1.0]hexan-6-yl)amino)-6-oxo-1,6-dihydropyridine-3-carboxamide], for which the pIC50 was 5.93.

As for `C[C@H](NC(=O)c1cn(C2(C(F)F)CC2)c(=O)cc1N[C@H]1[C@@H]2CN(C)C[C@@H]21)c1cccc(C(F)(F)c2ccncc2)c1F` [Example 175, N-((S)-1-(3-(difluoro(pyridin-4-yl)methyl)-2-fluorophenyl)ethyl)-1-(1-(difluoromethyl)cyclopropyl)-4-(((1R,5S,6s)-3-methyl-3-azabicyclo[3.1.0]hexan-6-yl)amino)-6-oxo-1,6-dihydropyridine-3-carboxamide], the pIC50 was 7.89.

In turn, `CC(NC(=O)c1cn(C2(C(F)F)CC2)c(=O)cc1N[C@H]1[C@@H]2CN(C)C[C@@H]21)c1cccc(C(F)(F)c2cocn2)c1F` (stereo partly drawn) [Example 176, N-(1-(3-(difluoro(oxazol-4-yl)methyl)-2-fluorophenyl)ethyl)-1-(1-(difluoromethyl)cyclopropyl)-4-(((1R,5S,6s)-3-methyl-3-azabicyclo[3.1.0]hexan-6-yl)amino)-6-oxo-1,6-dihydropyridine-3-carboxamide] had a negative-log IC50 (pIC50) of 6.96.

With `C[C@@H](NC(=O)c1cn(C23CC(C2)C3)c(=O)cc1N[C@H]1[C@@H]2CN(C)C[C@@H]21)c1cccc(C#N)c1F` [Example 179, 1-(bicyclo[1.1.1]pentan-1-yl)-N-((R)-1-(3-cyano-2-fluorophenyl)ethyl)-4-(((1R,5S,6s)-3-methyl-3-azabicyclo[3.1.0]hexan-6-yl)amino)-6-oxo-1,6-dihydropyridine-3-carboxamide], the pIC50 was 7.15.

For `C[C@@H](NC(=O)c1cn(C23CC(C2)C3)c(=O)cc1N[C@H]1[C@@H]2CN(C)C[C@@H]21)c1cccc(OC(F)F)c1Cl` [Example 180, 1-(bicyclo[1.1.1]pentan-1-yl)-N-((R)-1-(2-chloro-3-(difluoromethoxy)phenyl)ethyl)-4-(((1R,5S,6s)-3-methyl-3-azabicyclo[3.1.0]hexan-6-yl)amino)-6-oxo-1,6-dihydropyridine-3-carboxamide], the pIC50 was 6.95.

In turn, `Cc1c(C#N)cccc1[C@@H](C)NC(=O)c1cn(C23CC(C2)C3)c(=O)cc1N[C@H]1[C@@H]2CN(C)C[C@@H]21` [Example 181, 1-(bicyclo[1.1.1]pentan-1-yl)-N-((R)-1-(3-cyano-2-methylphenyl)ethyl)-4-(((1R,5S,6s)-3-methyl-3-azabicyclo[3.1.0]hexan-6-yl)amino)-6-oxo-1,6-dihydropyridine-3-carboxamide] showed a pIC50 of 7.10.

With `C[C@@H](NC(=O)c1cn(C2(C(F)F)CC2)c(=O)cc1NCC12CC(O)(C1)C2)c1cccc(C(F)F)c1F` [Example 182, (R)-N-(1-(3-(difluoromethyl)-2-fluorophenyl)ethyl)-1-(1-(difluoromethyl)cyclopropyl)-4-(((3-hydroxybicyclo[1.1.1]pentan-1-yl)methyl)amino)-6-oxo-1,6-dihydropyridine-3-carboxamide], the pIC50 is 7.47.

`C[C@@H](NC(=O)c1cn(C2(C(F)F)CC2)c(=O)cc1NCC1(F)CN(C)C1)c1cccc(C(F)F)c1F` [Example 185, (R)-N-(1-(3-(difluoromethyl)-2-fluorophenyl)ethyl)-1-(1-(difluoromethyl)cyclopropyl)-4-(((3-fluoro-1-methylazetidin-3-yl)methyl)amino)-6-oxo-1,6-dihydropyridine-3-carboxamide] gave a pIC50 of 7.51.
